Reference: patent US12215106B2, “Pharmaceutical compounds and therapeutic methods” (RUTGERS, THE STATE UNIVERSITY OF NEW JERSEY, priority 2018, dated 2025)
Structures can show the parent of a compound that is named as a salt. Where two headings read alike, the source gives them in different places.

Experiment: Plasma pharmacokinetics and brain distribution after single IV, IP and oral administration
Assay type: in vivo
Details: for Kp at 0.08 h / Kp at 0.35 h / Kp at 1 h / Kp at 3 h / Kp at 6 h: read-out: Brain-to-plasma ratio
Procedure: The objective of this study was to investigate the plasma pharmacokinetics and brain distribution of Compound (14 in male C57BL/6 mice following a single intravenous, intraperitoneal and oral administration. A group of sixty-three male mice were divided into three groups (Group 1: 2 mg/kg/IV; Group 2: 10 mg/kg/IP and Group 3: 10 mg/kg/PO) with each group comprising of twenty-one mice.
Animals in Group 1 were administered intravenously with Compound 15 solution formulation in 5% NMP, 5% Solutol HS-15, 30% PEG-400 and 60% Captisol (20% w/v) at 2 mg/kg dose. […] Considering mortality intravenous dose was reduced to 2 mg/kg.
Animals in Group 2 and 3 were administered with Compound 15 solution formulation in 5% NMP, 5% Solutol HS-15, 30% PEG-400 and 60% Captisol (20% w/v) at a dose of 10 mg/kg by intraperitoneal and oral route respectively.
(§1) Blood samples (approximately 60 μL) were collected under light isoflurane anesthesia from retro orbital plexus from a set of three mice at 0.08, 0.35, 1, 3, 6, 12 and 24 hr. Plasma samples were separated by centrifugation of whole blood and stored below −70±10° C. until bioanalysis. Immediately after collection of blood, brain samples were collected from set of three mice at each time point. Brain samples were homogenized using ice-cold phosphate buffer saline (pH-7.4) in a ratio of 2 (buffer):1(brain); and homogenates were stored below −70±10° C. until analysis. Total homogenate volume was three times the brain weight. All samples were processed for analysis by protein precipitation using acetonitrile and analyzed with fit-for-purpose LC/MS/MS method (LLOQ2.00 ng/mL for plasma and 3.00 ng/g for brain). Pharmacokinetic parameters were calculated using the non-compartmental analysis tool of Phoenix WinNonlin® (Version 7.0). Pharmacokinetic parameters of Compound 15 are summarized below.
The objective of this study was to investigate the plasma pharmacokinetics and brain distribution of Compound 16 in male C57BL/6 mice following a single intravenous, intraperitoneal and oral administration. A group of sixty-three male mice were divided into three groups (Group 1: 10 mg/kg/IV; Group 2: 10 mg/kg/IP and Group 3: 10 mg/kg/PO) with each group comprising of twenty-one mice.
Animals in Group 1 were administered intravenously with Compound 16 solution formulation in 5% NMP, 5% Solutol HS-15 and 90% normal saline at 10 mg/kg dose.
Animals in Group 2 and 3 were administered with Compound 16 solution formulation in 5% NMP, 5% Solutol HS-15 and 90% normal saline at a dose of 10 mg/kg by intraperitoneal and oral route respectively.
as §1, with “(LLOQ—1.00” for “(LLOQ2.00”, “16” for “15”
The objective of this study was to investigate the plasma pharmacokinetics and brain distribution of Compound 17 in male C57BL/6 mice following a single intravenous, intraperitoneal and oral administration. A group of sixty-three male mice were divided into three groups (Group 1: 2 mg/kg/IV; Group 2: 10 mg/kg/IP and Group 3: 10 mg/kg/PO) with each group comprising of twenty-one mice. […]

[1] = male, C57BL/6, mouse, brain, ip, 10 mg/kg, IP 10 mg/kg
[2] = male, C57BL/6, mouse, brain, po, 10 mg/kg, PO 10 mg/kg
[3] = male, C57BL/6, mouse, in vivo, ip, 10 mg/kg
[4] = male, C57BL/6, mouse, in vivo, ip, 10 mg/kg, 12 h
[5] = male, C57BL/6, mouse, in vivo, ip, 10 mg/kg, 24 h
[6] = male, C57BL/6, mouse, in vivo, ip, 10 mg/kg, Brain concentration, individual animal
[7] = male, C57BL/6, mouse, in vivo, ip, 10 mg/kg, Mean brain conc.
[8] = male, C57BL/6, mouse, in vivo, ip, 10 mg/kg, Mean plasma conc.
[9] = male, C57BL/6, mouse, in vivo, ip, 10 mg/kg, Plasma concentration, individual animal
[10] = male, C57BL/6, mouse, in vivo, iv, 2 mg/kg
[11] = male, C57BL/6, mouse, in vivo, iv, 2 mg/kg, 3 h
[12] = male, C57BL/6, mouse, in vivo, iv, 2 mg/kg, 6 h
[13] = male, C57BL/6, mouse, in vivo, iv, 2 mg/kg, 12 h
[14] = male, C57BL/6, mouse, in vivo, iv, 2 mg/kg, 24 h
[15] = male, C57BL/6, mouse, in vivo, iv, 2 mg/kg, Brain concentration, individual animal
[16] = male, C57BL/6, mouse, in vivo, iv, 2 mg/kg, Mean brain conc.

Q: Which “Oral bioavailability, % F” value (PO 10 mg/kg, AUClast considered, hydrochloride, 10 mg/kg) does the source give for `[2H]C1([2H])Oc2ccc(Nc3nc(-c4c(C)nc5ccccn45)cs3)cc2O1` [Compound 17, N-(benzo[d][1,3]dioxol-5-yl-2,2-d2)-4-(2-methylimidazo[1,2-c]pyridin-3-yl)thiazol-2-amine hydrochloride] here?
A: ~100%

Q: What about the AUClast (brain, IP 10 mg/kg) of the same molecule?
A: 360.87 ng·h/g

Q: What about the AUClast (brain, IV 2 mg/kg) of the same molecule?
A: 97.08 ng·h/g

Q: What about the AUCinf (brain, PO 10 mg/kg) of the same molecule?
A: 204.06 ng·h/g

Q: What about the AUClast (brain, PO 10 mg/kg) of the same molecule?
A: 171.84 ng·h/g

Q: What about the Kp at 0.08 h [1] of the same molecule?
A: 0.61

Q: And the Kp at 0.35 h [1]?
A: 0.52

Q: What about the Kp at 1 h [1] of the same molecule?
A: 0.39

Q: What about the Kp at 3 h [1] of the same molecule?
A: 1.1

Q: And the Kp at 6 h [1]?
A: 0.59

Q: What about the Kp (male, C57BL/6, mouse, brain, ip, 10 mg/kg, IP 10 mg/kg, read-out: brain-to-plasma ratio, range over time) of the same molecule?
A: 0.39 to 1.1

Q: What about the Kp (male, C57BL/6, mouse, brain, iv, 2 mg/kg, IV 2 mg/kg, read-out: brain-to-plasma ratio, range over time) of the same molecule?
A: 0.18 to 4.03

Q: What about the Kp at 0.08 h [2] of the same molecule?
A: 0.33

Q: What about the Kp at 0.35 h [2] of the same molecule?
A: 0.32

Q: What about the Kp at 1 h [2] of the same molecule?
A: 0.48

Q: And the Kp at 3 h [2]?
A: 0.32

Q: What about the Kp at 6 h [2] of the same molecule?
A: 0.23

Q: What about the Kp (male, C57BL/6, mouse, brain, po, 10 mg/kg, PO 10 mg/kg, read-out: brain-to-plasma ratio, range over time) of the same molecule?
A: 0.23 to 0.48

Q: What about the Kp (male, C57BL/6, mouse, brain, po, 10 mg/kg, summary data, read-out: Brain to plasma ratio following a single oral dose) of the same molecule?
A: 0.48

Q: What about the “Brain concentrations quantifiable up to” value [3] of the same molecule?
A: up to 6 hr

Q: And the “Plasma concentrations quantifiable up to” value [3]?
A: up to 6 hr

Q: What about the “Brain concentration, individual animal” value [4] of the same molecule?
A: 0.00 ng/g

Q: And the “Plasma concentration, individual animal” value [4]?
A: 0.00 ng/mL

Q: And the “Brain concentration, individual animal” value [5]?
A: 0.00 ng/g

Q: And the “Plasma concentration, individual animal” value [5]?
A: 0.00 ng/mL

Q: What about the concentration at 0.08 h [6] of the same molecule?
A: 285 ng/g

Q: And the concentration at 0.35 h [6]?
A: 291 ng/g

Q: What about the concentration at 1 h [6] of the same molecule?
A: 65.9 ng/g

Q: And the concentration at 12 h [6]?
A: 0 ng/g

Q: And the concentration at 24 h [6]?
A: 0 ng/g

Q: What about the concentration at 0.35 h [7] of the same molecule?
A: 236 ng/g

Q: And the concentration at 1 h [7]?
A: 90.3 ng/g

Q: And the concentration at 3 h [7]?
A: 82 ng/g

Q: What about the concentration at 6 h [7] of the same molecule?
A: 26 ng/g

Q: And the concentration at 12 h [7]?
A: 0 ng/g

Q: What about the concentration at 24 h [7] of the same molecule?
A: 0 ng/g

Q: And the concentration at 0.35 h [8]?
A: 458 ng/mL

Q: And the concentration at 1 h [8]?
A: 232 ng/mL

Q: What about the concentration at 3 h [8] of the same molecule?
A: 74.9 ng/mL

Q: And the concentration at 6 h [8]?
A: 43.7 ng/mL

Q: What about the concentration at 12 h [8] of the same molecule?
A: 0 ng/mL

Q: What about the concentration at 24 h [8] of the same molecule?
A: 0 ng/mL

Q: And the concentration at 0.08 h [9]?
A: 530 ng/mL

Q: And the concentration at 0.35 h [9]?
A: 478 ng/mL

Q: What about the concentration at 1 h [9] of the same molecule?
A: 223 ng/mL

Q: And the concentration at 12 h [9]?
A: 0 ng/mL

Q: What about the concentration at 24 h [9] of the same molecule?
A: 0 ng/mL

Q: What about the “Brain concentrations quantifiable up to” value [10] of the same molecule?
A: up to 1 hr

Q: And the “Vss, fold more than normal volume of total body water (0.7 L/kg)” value [10]?
A: 6.3 fold

Q: And the “Brain concentration, individual animal” value [11]?
A: 0.00 ng/g

Q: What about the “Plasma concentration, individual animal” value [11] of the same molecule?
A: 0.00 ng/mL

Q: And the “Brain concentration, individual animal” value [12]?
A: 0.00 ng/g

Q: And the “Plasma concentration, individual animal” value [12]?
A: 0.00 ng/mL

Q: What about the “Brain concentration, individual animal” value [13] of the same molecule?
A: 0.00 ng/g

Q: What about the “Plasma concentration, individual animal” value [13] of the same molecule?
A: 0.00 ng/mL

Q: And the “Brain concentration, individual animal” value [14]?
A: 0.00 ng/g

Q: What about the “Plasma concentration, individual animal” value [14] of the same molecule?
A: 0.00 ng/mL

Q: And the concentration at 0.08 h [15]?
A: 44.7 ng/g

Q: And the concentration at 1 h [15]?
A: 17.1 ng/g

Q: What about the concentration at 3 h [15] of the same molecule?
A: 0 ng/g

Q: What about the concentration at 6 h [15] of the same molecule?
A: 0 ng/g

Q: And the concentration at 12 h [15]?
A: 0 ng/g

Q: And the concentration at 24 h [15]?
A: 0 ng/g

Q: What about the concentration at 0.08 h [16] of the same molecule?
A: 44.9 ng/g

Q: What about the concentration at 0.35 h [16] of the same molecule?
A: 180 ng/g

Q: What about the concentration at 1 h [16] of the same molecule?
A: 13.8 ng/g

Q: And the concentration at 3 h [16]?
A: 0 ng/g
